Molecules are shown by their SMILES.

Our source for the IC50 values is US8546375B2, “(3-(4-(aminomethyl)phenoxy or phenylthio)azetidin-1-yl)(5-phenyl-1,3,4-oxadiazol-2-yl)methanone compounds” (AstraZeneca AB, priority 2010, dated 2013).

T1 sequence (Q99705 whole entry): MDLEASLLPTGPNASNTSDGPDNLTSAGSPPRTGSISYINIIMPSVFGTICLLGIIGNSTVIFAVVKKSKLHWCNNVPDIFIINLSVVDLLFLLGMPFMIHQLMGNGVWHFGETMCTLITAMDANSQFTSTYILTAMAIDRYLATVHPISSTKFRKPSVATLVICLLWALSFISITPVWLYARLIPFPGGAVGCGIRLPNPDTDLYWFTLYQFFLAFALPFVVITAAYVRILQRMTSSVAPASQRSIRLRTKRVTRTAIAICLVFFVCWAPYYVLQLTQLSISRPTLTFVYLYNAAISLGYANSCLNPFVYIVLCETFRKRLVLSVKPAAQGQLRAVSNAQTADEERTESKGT

One assay concerns the target T1, Melanin Concentrating Hormone Receptor 1 (MCHR1) (Homo sapiens, UniProt Q99705).
T1 construct: expressed in transfected cells
In words: MCHR1 Receptor Activation Assay (GTPγ^35S). As to conditions: read-out: GTPγ^35S IC50. The assay is classed as biochemical.
`COc1ccc(-c2nnc(C(=O)N3CC(Oc4ccc(CN(C)C)c(Cl)c4)C3)o2)cc1` [Example 47, (3-(3-Chloro-4-((dimethylamino)methyl)phenoxy)azetidin-1-yl)(5-(4-methoxyphenyl)-1,3,4-oxadiazol-2-yl)methanone]: the IC50 (commonly the point on the concentration scale where inhibition reaches its midpoint) was 19 nM.
The same measure, in the same setting: with `COc1ccc(-c2nnc(C(=O)N3CC(Oc4ccc(CN5CCN(C(C)=O)CC5)cc4)C3)o2)cc1` [Example 24, 1-(4-(4-(1-(5-(4-Methoxyphenyl)-1,3,4-oxadiazole-2-carbonyl)azetidin-3-yloxy)benzyl)piperazin-1-yl)ethanone] the figure was 44 nM; with `COc1ccc(-c2nnc(C(=O)N3CC(Sc4ccc(CN5CCCC5)cc4)C3)o2)cc1` [Example 59, (5-(4-Methoxyphenyl)-1,3,4-oxadiazol-2-yl)(3-(4-(pyrrolidin-1-ylmethyl)phenylthio)azetidin-1-yl)methanone], 11 nM.
Still for that read-out and setting: to `CC(=O)N1CCN(Cc2ccc(OC3CN(C(=O)c4nnc(-c5ccc(Cl)cc5)o4)C3)cc2)CC1` [Example 25, 1-(4-(4-(1-(5-(4-Chlorophenyl)-1,3,4-oxadiazole-2-carbonyl)azetidin-3-yloxy)benzyl)piperazin-1-yl)ethanone] belongs 34 nM.
Still for that read-out and setting: to `Cc1cc(OC2CN(C(=O)c3nnc(-c4ccc(Cl)cc4)o3)C2)ccc1CN(C)C` [Example 44, (5-(4-Chlorophenyl)-1,3,4-oxadiazol-2-yl)(3-(4-((dimethylamino)methyl)-3-methylphenoxy)azetidin-1-yl)methanone] belongs 10 nM.
Turning to `Cc1ccc(-c2nnc(C(=O)N3CC(Oc4ccc(CN(C)C)cc4C)C3)o2)cc1` [Example 18, (3-(4-((Dimethylamino)methyl)-2-methylphenoxy)azetidin-1-yl)(5-p-tolyl-1,3,4-oxadiazol-2-yl)methanone], the IC50 was found to be 25 nM.
Take `O=C(c1nnc(-c2ccccc2)o1)N1CC(Oc2ccc(CN3CCC3)cc2)C1` [Example 42, (3-(4-(azetidin-1-ylmethyl)phenoxy)azetidin-1-yl)(5-phenyl-1,3,4-oxadiazol-2-yl)methanone]: the IC50 is 26 nM.
As to `COc1ccc(-c2nnc(C(=O)N3CC(Oc4ccc(CN5CCCC5)c(OC)c4C)C3)o2)cc1` [Example 52, (3-(3-Methoxy-2-methyl-4-(pyrrolidin-1-ylmethyl)phenoxy)azetidin-1-yl)(5-(4-methoxyphenyl)-1,3,4-oxadiazol-2-yl)methanone], the IC50 was 24 nM.
On the same count and under the same terms, to `COc1ccc(-c2nnc(C(=O)N3CC(Oc4ccc(CN5CC(OC)C5)cc4)C3)o2)cc1` [Example 55, (3-(4-((3-Methoxyazetidin-1-yl)methyl)phenoxy)azetidin-1-yl)(5-(4-methoxyphenyl)-1,3,4-oxadiazol-2-yl)methanone] belongs 22 nM.
`CC1(O)CN(Cc2ccc(OC3CN(C(=O)c4nnc(-c5ccccc5)o4)C3)cc2)C1` [Example 77, (3-(4-((3-Hydroxy-3-methylazetidin-1-yl)methyl)phenoxy)azetidin-1-yl)(5-phenyl-1,3,4-oxadiazol-2-yl)methanone]: the half-maximal inhibitory concentration (IC50) stood at 40 nM.
On the same count and under the same terms, to `O=C(c1nnc(-c2ccccc2)o1)N1CC(Oc2ccc(CN3CCCC3)cc2)C1` [Example 3, (5-Phenyl-1,3,4-oxadiazol-2-yl)(3-(4-(pyrrolidin-1-ylmethyl)phenoxy)azetidin-1-yl)methanone] belongs 27 nM; to `CN(Cc1ccc(SC2CN(C(=O)c3nnc(-c4ccccc4)o3)C2)cc1)C1CCOCC1` [Example 64], 12 nM; to `CCC1(O)CN(Cc2ccc(OC3CN(C(=O)c4nnc(-c5ccc(OC)cc5)o4)C3)cc2)C1` [Example 70, (3-(4-((3-Ethyl-3-hydroxyazetidin-1-yl)methyl)phenoxy)azetidin-1-yl)(5-(4-methoxyphenyl)-1,3,4-oxadiazol-2-yl)methanone], 20 nM.

Staying with this assay, now noted: when tested in the above referenced assays (MCH binding assay; MCHR1 receptor activation assay); read-out: IC50 value.
Regarding `O=C(c1nnc(-c2ccccc2)o1)N1CC(Oc2ccc(CNC3COC3)cc2)C1` [(3-(4-((oxetan-3-ylamino)methyl)phenoxy)azetidin-1-yl)(5-sphenyl-1,3,4-oxadiazol-2-yl)methanone], the IC50 was no less than 100 nM.
